From patent US12202835B2, “Substituted aromatic ring-linked dioxinoquinazolines and dioxinoquinolines as kinase inhibitors” (BEIJING SCITECH-MQ PHARMACEUTICALS LIMITED, priority 2018, dated 2025)

Experiments:
MHCC97H cells = test: Assay for inhibiting the proliferation of MHCC97H cells (CCK-8); format: cell-based; conditions: Homo sapiens
Procedure, shortened: (§1)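 Cells seeded in 96-well plates overnight, then exposed 72 h to 9 three-fold dilutions of compound (0.25% DMSO final). Viability by CCK-8 (1-2 h at 37° C., OD 450 nm), survival normalized to untreated and cell-free blanks; IC50 by curve fitting.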

VEGFR-2 kinase = VEGFR-2 kinase (Homo sapiens (Human), UniProt P35968); test: Assay of small molecular compounds for inhibiting the activity of VEGFR-2 kinase (LANCE TR-FRET); format: biochemical; conditions: read-out: VEGFR2 IC50
Procedure, shortened: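 LANCE TR-FRET with human VEGFR-2 (2× stock 0.5 nM) preincubated 30 min with compound (final 2500 to 0.042 nM, 11-point 3-fold), then ULight-JAK-1 (Tyr1023) peptide/ATP added (4× stocks 200 nM/40 μM). Reaction 60 min room temperature, 4% DMSO; IC50 from inhibition-rate curve.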

EBC1 cells = test: Assay for inhibiting the proliferation of EBC1 cells (CCK-8); format: cell-based; conditions: Homo sapiens, EBC-1
Procedure, shortened: as §1

Ba/F3-AXL cells = test: Assay for inhibiting the proliferation of Ba/F3-AXL cells (CCK-8); format: cell-based; conditions: 72 hours of incubation, medium with 100 ng/mL hGas6, CCK-8
Protocol: The values were then imported into Graphpad Prism 5 software for curve fitting, and IC50 was calculated.

VEGFR-2 kinase, sequence (P35968 20-1356): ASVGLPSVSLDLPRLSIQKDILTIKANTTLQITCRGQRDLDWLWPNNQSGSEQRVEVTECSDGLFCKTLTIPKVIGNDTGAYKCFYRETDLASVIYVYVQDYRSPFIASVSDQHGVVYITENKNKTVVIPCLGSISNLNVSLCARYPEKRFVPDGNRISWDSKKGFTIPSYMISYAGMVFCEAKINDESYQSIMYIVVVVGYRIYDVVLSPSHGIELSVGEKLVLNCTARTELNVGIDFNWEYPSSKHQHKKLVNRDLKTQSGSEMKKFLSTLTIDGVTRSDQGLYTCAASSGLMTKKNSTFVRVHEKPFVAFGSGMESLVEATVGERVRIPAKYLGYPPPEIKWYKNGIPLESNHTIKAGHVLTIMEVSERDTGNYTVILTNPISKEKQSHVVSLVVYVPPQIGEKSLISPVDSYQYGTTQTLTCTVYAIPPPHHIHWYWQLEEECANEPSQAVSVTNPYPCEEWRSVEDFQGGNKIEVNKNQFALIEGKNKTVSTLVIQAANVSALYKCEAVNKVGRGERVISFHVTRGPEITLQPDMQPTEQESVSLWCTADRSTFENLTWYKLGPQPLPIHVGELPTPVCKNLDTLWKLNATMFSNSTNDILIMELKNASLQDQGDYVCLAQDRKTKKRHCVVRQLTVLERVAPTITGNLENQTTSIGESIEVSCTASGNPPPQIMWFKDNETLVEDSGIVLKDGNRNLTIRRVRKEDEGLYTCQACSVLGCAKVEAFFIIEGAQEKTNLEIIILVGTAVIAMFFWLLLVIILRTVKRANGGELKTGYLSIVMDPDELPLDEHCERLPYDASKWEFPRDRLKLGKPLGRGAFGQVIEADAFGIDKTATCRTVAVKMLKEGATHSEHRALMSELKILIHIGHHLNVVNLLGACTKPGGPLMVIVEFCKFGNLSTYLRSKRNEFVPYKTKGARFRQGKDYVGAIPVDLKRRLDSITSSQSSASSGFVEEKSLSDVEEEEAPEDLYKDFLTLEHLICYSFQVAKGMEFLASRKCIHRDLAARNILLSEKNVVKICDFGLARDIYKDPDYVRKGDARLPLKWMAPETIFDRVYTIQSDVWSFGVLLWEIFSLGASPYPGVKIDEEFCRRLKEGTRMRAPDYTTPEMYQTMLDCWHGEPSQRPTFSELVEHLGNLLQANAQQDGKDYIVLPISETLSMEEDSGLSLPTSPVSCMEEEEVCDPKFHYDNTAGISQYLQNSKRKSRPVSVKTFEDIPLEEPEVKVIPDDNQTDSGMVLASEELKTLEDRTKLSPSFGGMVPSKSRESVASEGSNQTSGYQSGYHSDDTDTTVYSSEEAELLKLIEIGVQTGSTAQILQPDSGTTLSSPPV

Row | IC50 (VEGFR-2 kinase) [nM] | IC50 (Ba/F3-AXL cells) [nM] | Structure (SMILES) | IC50 (MHCC97H cells) [nM] | IC50 (EBC1 cells) [nM]
1 | ≤ 50 | < 50 | CCOc1ccn(-c2ccc(F)cc2)c(=O)c1C(=O)Nc1ccc(Oc2ccnc3cc(OCCCN4CCC(C)(N)CC4)c4c(c23)OCCO4)c(F)c1 [Example 68, N-(4-((5-(3-(4-amino-4-methylpiperidin-1-yl)propoxy)-2,3-dihydro-[1,4]dioxino[2,3-f]quinolin-10-yl)oxy)-3-fluorophenyl)-4-ethoxy-1-(4-fluorophenyl)-2-oxo-1,2-dihydropyridine-3-carboxamide] | 200 to 1000 | ≤ 50
2 | ≤ 50 | < 50 | CCOc1ccn(-c2ccc(F)cc2)c(=O)c1C(=O)Nc1ccc(Oc2ccnc3cc(OCCCN4CCC(C)(O)CC4)c4c(c23)OCCO4)c(F)c1 [Example 69, N-(4-((5-(3-(4-hydroxy-4-methylpiperidin-1-yl)propoxy)-2,3-dihydro-[1,4]dioxino[2,3-f]quinolin-10-yl)oxy)-3-fluorophenyl)-4-ethoxy-1-(4-fluorophenyl)-2-oxo-1,2-dihydropyridine-3-carboxamide] | 50 to 200 | ≤ 50
3 | ≤ 50 | < 50 | CCOc1ccn(-c2ccc(F)cc2)c(=O)c1C(=O)Nc1ccc(Oc2ccnc3cc(OCCCN(C)CCOC)c4c(c23)OCCO4)c(F)c1 [Example 70, N-(4-((5-(3-((2-methoxyethyl)(methyl)amino)propoxy)-2,3-dihydro-[1,4]dioxino[2,3-f]quinolin-10-yl)oxy)-3-fluorophenyl)-4-ethoxy-1-(4-fluorophenyl)-2-oxo-1,2-dihydropyridine-3-carboxamide] | ≤ 50 | ≤ 50
4 | ≤ 50 | < 50 | CCOc1ccn(-c2ccc(F)cc2)c(=O)c1C(=O)Nc1ccc(Oc2ccnc3cc(OCCCN(C)C4CCC4)c4c(c23)OCCO4)c(F)c1 [Example 71, N-(4-((5-(3-(cyclobutyl(methyl)amino)propoxy)-2,3-dihydro-[1,4]dioxino[2,3-f]quinolin-10-yl)oxy)-3-fluorophenyl)-4-ethoxy-1-(4-fluorophenyl)-2-oxo-1,2-dihydropyridine-3-carboxamide] | ≤ 50 | ≤ 50
5 | ≤ 50 | < 50 | CCOc1ccn(-c2ccc(F)cc2)c(=O)c1C(=O)Nc1ccc(Oc2ccnc3cc(OCCCN4CCOCC4)c4c(c23)OCCO4)c(Cl)c1 [Example 72, N-(4-((5-(3-morpholinopropoxy)-2,3-dihydro-[1,4]dioxino[2,3-f]quinolin-10-yl)oxy)-3-chlorophenyl)-4-ethoxy-1-(4-fluorophenyl)-2-oxo-1,2-dihydropyridine-3-carboxamide] | ≤ 50 | ≤ 50
6 | 50 to 500 | < 50 | CCOc1ccn(-c2ccc(F)cc2)c(=O)c1C(=O)Nc1ccc(Oc2ccnc3cc(OCCCN4CCOCC4)c4c(c23)OCCO4)cc1Cl [Example 73, N-(2-chloro-4-((5-(3-morpholinopropoxy)-2,3-dihydro-[1,4]dioxino[2,3-f]quinolin-10-yl)oxy)phenyl)-4-ethoxy-1-(4-fluorophenyl)-2-oxo-1,2-dihydropyridine-3-carboxamide] | ≤ 50 | ≤ 50
7 | ≤ 50 | < 50 | CN1CCN(CCCOc2cc3nccc(Oc4ccc(NC(=O)c5cn(C)c(=O)n(-c6ccc(F)cc6)c5=O)cc4F)c3c3c2OCCO3)CC1 [Example 74, N-(3-fluoro-4-((5-(3-(4-methylpiperazin-1-yl)propoxy)-2,3-dihydro-[1,4]dioxino[2,3-f]quinolin-10-yl)oxy)phenyl)-3-(4-fluorophenyl)-1-methyl-2,4-dioxo-1,2,3,4-tetrahydropyrimidine-5-carboxamide] | 50 to 200 | ≤ 50
8 | 500 to 5000 | < 50 | COCCCOc1cc2nccc(Oc3ccc(NC(=O)c4cn(C)c(=O)n(-c5ccc(F)cc5)c4=O)cc3F)c2c2c1OCCO2 [Example 80, N-(3-fluoro-4-((5-(3-methoxypropoxy)-2,3-dihydro-[1,4]dioxino[2,3-f]quinolin-10-yl)oxy)phenyl)-3-(4-fluorophenyl)-1-methyl-2,4-dioxo-1,2,3,4-tetrahydropyrimidine-5-carboxamide] | ≤ 50 | ≤ 50
